Laboratory results taken from patent publication US5948662A, “Bacillus-derived transglutaminase” (Ajinomoto Co., Inc., priority 1995, dated 1999).
Read-outs that look alike come from different tables or passages of the source.

Columns and labels:
[1] = test system: Bacillus subtilis-derived TG reported by Ramanujam et al.; settings: cited from earlier work
[2] = target: T1, Bacillus subtilis AJ1307-derived TG (TG-1) (Bacillus subtilis, UniProt P40746, D22N); format: biochemical; settings: for Influence of reagent on TG activity (in words): TG-1, summary of Table 1; for Remaining Activity (relative value): pH 7.5, 37° C.
T1 construct: The thus-obtained cells were used as the starting material, from which TG was purified in the manner mentioned below; endogenous in cells; host or cells: Bacillus subtilis AJ1307 (enzyme solubilized from spores and purified to a single band)
T1 sequence (P40746 whole entry D22N): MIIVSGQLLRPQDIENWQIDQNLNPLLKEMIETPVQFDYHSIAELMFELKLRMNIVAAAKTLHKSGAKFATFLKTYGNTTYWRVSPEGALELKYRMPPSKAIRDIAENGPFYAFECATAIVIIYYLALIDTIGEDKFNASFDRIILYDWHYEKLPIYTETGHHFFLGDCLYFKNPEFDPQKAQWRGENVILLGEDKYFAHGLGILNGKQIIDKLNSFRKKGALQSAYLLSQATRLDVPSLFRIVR
Protocol: The TG activity of the enzyme liquids obtained below was determined according to an enzymatic activity measuring method, which is as follows. […] The thus-counted value was referred to as the TG activity of the enzyme liquid.
Effects, if any, of various reagents on the TG activity were checked. The reagents tested herein were N-ethylmaleimide (NEM), cystamine, phenylmethanesulfonyl fluoride (PMSF), ammonium sulfate, sodium sulfate, EDTA, EGTA, calcium chloride, dithiothreitol (DTT) and 2-mercaptoethanol (2-ME). All were bought from Nacalai Tesque, Inc.
As the enzyme source, the previously-prepared pure TG fraction was used at a concentration of 2 μg/ml. The protein concentration was measured, using a protein assay kit (produced by Bio Rad Co.).
To measure the TG activity, the above-mentioned method of using ^1 4C-labeled putrescine and dimethylcasein as the substrates (at pH of 7.5 and at 37° C.) was employed. As the enzyme source, the previously-prepared pure TG fraction was used at a concentration of 2 μg/ml. The reaction was conducted at 37° C. for 30 minutes.
The TG activity was measured in the following manner. The above-mentioned pure TG fraction was mixed with each one of the reagents that had been adjusted to have a suitable concentration and then left on ice for 30 minutes. The solution of the enzyme source thus reacted with each reagent was adjusted to have a TG concentration of 2 μg/ml and then reacted with the substrates, whereupon the TG activity still remained in the resulting reaction system was measured (at pH of 7.5 and at 37° C.).

[3] = target: T2, Bacillus subtilis AJ12866-derived TG (TG-2) (Bacillus subtilis, UniProt P40746); experiment: Influence of reagents on TG activity (TG active fraction after gel permeation, TG-2); settings: for Remaining Activity (relative value): control = 100
T2 sequence (P40746 1-245): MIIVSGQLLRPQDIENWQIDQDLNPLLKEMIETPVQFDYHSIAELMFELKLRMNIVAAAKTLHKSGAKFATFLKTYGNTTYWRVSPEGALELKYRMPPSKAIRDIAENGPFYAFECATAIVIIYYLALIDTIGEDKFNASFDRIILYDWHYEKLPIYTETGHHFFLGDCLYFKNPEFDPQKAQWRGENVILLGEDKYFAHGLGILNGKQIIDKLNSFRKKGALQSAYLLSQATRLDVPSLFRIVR
Protocol: The method for measuring the enzymatic activity as employed herein was as follows. 50 μl of a reaction system (100 mM Tris-HCl, pH 7.5, 6.3 mg/ml dimethylcasein, 10 nM ^14 C-putrescine, 1.2 μCi) containing 10 μl of the enzyme sample to be measured was kept at 37° C. for 30 minutes thereby to make the substrates reacted. After the reaction, 40 μl of the reaction mixture was adsorbed onto filter paper. In the reaction mixture, the putrescine was reacted with the dimethylcasein due to the catalysis of the TG therein. A bonded reaction product of the putrescine and the dimethylcasein was adsorbed on the filter paper. By adding 10% TCA thereto, the bonded reaction product was fixed on the filter paper. Then, the filter paper was washed three times with a 5% TCA solution, and the ^1 4C radioactivity as fixed to the filter paper was counted with a liquid scintillation counter. The value thus measured corresponds to the relative TG activity of the enzyme sample.
The cells of Bacillus subtilis AJ12866 strain were suspended in a reaction system (0.5 mg/ml lysozyme, 20 μg/ml DNase I, 0.1 M Tris-HCl (pH 7.5), 2 mM DTT, 1 mM EDTA, 2 mM PMSF) and reacted on ice for 2 hours whereby the cells were lysed. The resulting reaction mixture was centrifuged at 20,000×g for 20 minutes, and the precipitate fraction thus obtained was suspended in a washing system (0.1 M Tris-HCl (pH 7.5), 1 mM EDTA, 2 mM PMSF). The resulting suspension was centrifuged, and the precipitate was collected. This operation was repeated for a total of two times.
The thus-obtained precipitate fraction was suspended in a buffer (0.1 M sodium carbonate (pH 10), 1 mM EDTA, 2 mM PMSF) and left at 37° C. for 30 minutes. Meanwhile, a part of the substances that had existed in the precipitate fraction were dissolved in the buffer and the TG activity was transferred to the soluble fraction. […] The pH of the supernatant was adjusted to 6.0 by adding acetic acid thereto. This is referred to as a crude enzyme liquid. The crude enzyme liquid was concentrated by ultrafiltration and then dialyzed against a buffer (50 mM Tris-HCl (pH 7.5), 0.1 M NaCl), whereby the buffer was exchanged. The resulting crude enzyme liquid was subjected to gel permeation, and the TG active fraction thus eluted was collected. The enzymatic properties of the fraction were measured.

[4] = agent concentration 10 (unit not given), control = 100
[5] = agent concentration 5 (unit not given), control = 100

Row | SMILES | Influence of reagent on TG activity (in words) [2] | Remaining Activity (relative value) [2, 4] | Influence of reagent on TG activity (in words) ([3]; TG-2, Ca^2+ at 5 mM or more) | Remaining Activity (relative value) ([3]; agent concentration 10 mM) | also measured
1 | O[C@H](CS)[C@H](O)CS (racemic) [DTT, dithiothreitol] | not inhibited | 119 | not inhibited |  | Influence of reagent on the activity of the reported TG (in words) [1]: inhibited; Increase of TG activity in the presence of DTT ([3]; 1 mM of DTT): ≥ 1.5 times
2 | OCCS [2-ME, 2-mercaptoethanol] | not inhibited | 111 |  | 122 | 
3 | N.N.O=S(=O)(O)O [(NH4)2 SO4, ammonium sulfate] | inhibited | 1 | greatly inhibited | 3 | 
4 | [Ca+2].[Cl-].[Cl-] [CaCl2, calcium chloride] |  |  | not inhibited |  | Influence of Ca^2+ on the reported TG (in words) ([1]; Ca^2+ of 5 mM or more): inhibited; TG activity maintained in the presence of Ca2+ ([2]; Ca2+ of not less than 5 mM): not less than 50%; Remaining Activity (relative value) [2, 5]: 65
5 | O=C(O)CN(CCN(CC(=O)O)CC(=O)O)CC(=O)O [EDTA, ethylenediamine-tetraacetic acid] | not inhibited | 107 |  |  | Influence of reagent on TG activity (in words) [3]: almost no influence
6 | O=C(O)CN(CCOCCOCCN(CC(=O)O)CC(=O)O)CC(=O)O [EGTA] | not inhibited | 98 |  | 94 | Influence of reagent on the activity of the reported TG (in words) [1]: greatly inhibited
7 | CCN1C(=O)C=CC1=O [NEM, N-ethylmaleimide] | inhibited |  | greatly inhibited |  | Remaining Activity (relative value) ([2]; agent concentration 1 (unit not given), TG not reacted with reagent = 100, 30 min on ice with reagent): 17
8 | O=S(=O)([O-])[O-].[Na+].[Na+] [Na2 SO4, sodium sulfate] | not inhibited | 87 |  | 85 | 
9 | O=S(=O)(F)Cc1ccccc1 [PMSF, phenylmethanesulfonyl fluoride] |  |  |  |  | Remaining Activity (relative value) [2, 5]: 89; Remaining Activity (relative value) ([3]; agent concentration 5 mM): 95
10 | NCCSSCCN [cystamine] | inhibited |  | greatly inhibited |  | Remaining Activity (relative value) ([2]; agent concentration 2 (unit not given), control = 100): 0
